Data on one molecule can be found in patent US7037652B2, “Expression analysis of KIAA nucleic acids and polypeptides useful in the diagnosis and treatment of prostate cancer” (Wyeth, priority 2000, dated 2006).

The structures appear in SMILES notation.

The test system of assay [1] is PSA production of LNCaP cells.
The test system of assay [2] is KIAA 96 expression in LNCaP cells. The conditions noted are these: 10 nM DHT, 24 hours, FIG. 3C.
Assay [3] deals with PSA expression in LNCaP cells. Particulars: 10 nM DHT, FIG. 3A.
Assay [4] concerns LNCaP cells. The conditions noted are these: MTT assay, FIG. 1A. The procedure:
Human prostatic cancer cell lines LNCaP, DU-145, PC-3, and Tsu-prl were obtained from ATCC. LNCaP cancer cells were maintained in humidified atmosphere of 5% CO2 in air in RPMI 1640 medium supplemented with 10% fetal calf serum (Life Technologies, Inc, Rockville, Md.), 3 mM L-glutamine, 100 μg/ml streptomycin and 100 units/ml penicillin. Other lines were maintained in DMEM containing 3 mM L-glutamine, 100 μg/ml streptomycin, 100 units/ml penicillin, and 10% FCS in humidified atmosphere of 5% CO2. To examine the effects of steroids, cells were cultured in RPMI 1640 medium containing 5% FCS treated with dextran coated charcoal (Hyclone, Logan, Utah) for 24 hs before treatment. Cells were grown in the absence or presence of 10 nM DHT for 0, 2, 4, 6, 12, 24, 48, and 72 hs. They were collected and frozen at each time point. Two hundred μl of medium were collected from each flask for PSA assay.
To verify the effect of DHT on the growth of LNCaP cells, cells at 3,000 cells/well were plated in 96-well plates for 24 hs before treatment with DHT. After 72 hs, MTT was added to each well and incubated at 37° C. for four hs. At the end of incubation, the supernatant was removed and 100 μl DMSO was added to each well to dissolve […]. Plates were subsequently read in a plate reader at […].
(In general: Formazan colour is commonly taken as a measure of viable cells.)

Assay [5] concerns KIAA 18 expression in LNCaP cells. Particulars: 10 nM DHT.
For assay [6], the system named is Prostatic Acid Phosphatase (PAcP) in LNCaP. The conditions noted are these: cited from earlier work.

Take `C[C@]12CCC(=O)C[C@@H]1CC[C@@H]1[C@@H]2CC[C@]2(C)[C@@H](O)CC[C@@H]12` [DHT, dihydrotestosterone]: in assay [1], the PSA production result is “increased in a dose-dependent manner”, the “time at which PSA signal was first detected” value turned out to be 12 h and the “time of maximal PSA level” value is “about 48 hs”. Moreover, the “KIAA 96 expression down relative to baseline” value in assay [2] is reported as 6 fold. Moreover, the “PSA expression increase relative to control” value in assay [3] (12 hours) was 3 fold. The “PSA expression induction relative to control” value in assay [3] (72 hours) is “approximately 4 fold”. Also, the “growth of LNCaP cells” value in assay [4] is listed as “stimulated”. Moreover, the “time at which KIAA 18 induction began” value in assay [5] came to 12 h. The “KIAA 18 over-expression relative to control” value in assay [5] (24 hours, FIG. 3B) is 2 fold. Further, in assay [5] (72 hours), the “KIAA 18 induction relative to baseline” value is 3 fold. For the same molecule, the PAcP expression entry in assay [6] is “suppressed”.
